The values that follow come from publication PMC5893132, “Selective inhibition of histamine-evoked Ca^2+ signals by compartmentalized cAMP in human bronchial airway smooth muscle cells” (Cell Calcium, 2018).

Structures are written as SMILES. Counter-ions that a name gives are not always drawn.

The subject of assay [1] is carbachol-evoked Ca^2+ signals in hBASMCs. The experiment in a line: Carbachol-evoked Ca2+ signals in populations of fluo-4-loaded hBASMCs. The format is cell-based, human. As to conditions: cells treated with PTX 100 ng·mL^−1, 24 h; HBS. On the procedure: Two methods were used to measure [Ca^2+]i in populations of hBASMCs. For measurements using a FlexStation III plate-reader (Molecular Devices, Sunnyvale, CA, USA), hBASMCs were seeded into 96-well plates (10^4 cells per well). After about 4 days, when the cells were confluent, the medium was replaced with SMGM-2 without serum or growth factor supplements, and the cells were used after a further 24 h. […] Cells were washed with HEPES-buffered saline (HBS: 135 mM NaCl, 5.9 mM KCl, 1.2 mM MgCl2, 1.5 mM CaCl2, 11.6 mM HEPES, 11.5 mM D-glucose, pH 7.3), and loaded with fluo-4 by incubation with fluo-4-AM (2 μM) in HBS (100 μL per well) containing pluronic F127 (0.02%, v/v) and probenecid (2.5 mM). After 1 h at 20 °C, the medium was replaced with HBS (100 μL per well) containing probenecid (2.5 mM). After a further incubation at 20 °C for 1 h, the medium was replaced with HBS (60–80 μL per well) or nominally Ca^2+-free HBS, and the cells were used immediately for experiments at 20 °C. […] Drug additions (20 μL at 4 or 5 times the final concentration) were added automatically. Fluorescence from fluo-4 (excitation 485 nm, emission 525 nm) was recorded at 1.44-s intervals using Softmax Pro 5.4 (Molecular Devices). Fluorescence was calibrated to [Ca^2+]i from: [Ca^2+]i=KDCa×(F−Fmin/Fmax−F) where, KDCa is the equilibrium dissociation constant of fluo-4 for Ca^2+ (345 nM), F is the recorded fluorescence, and Fmin and Fmax are the fluorescence values recorded after addition of triton-X-100 (0.1%, v/v) with either BAPTA (10 mM, Fmin) or CaCl2 (10 mM, Fmax). […] Fmax was determined for each well at the end of an experiment, and the average value was used for each column of 8 wells. Fmin was determined from parallel wells on each plate.
For measurements of [Ca^2+]i using an FDSS 7000 FLIPR (Hamamatsu), hBASMCs were seeded into 384-well plates (8000 cells per well) in 20 μL of SMGM-2 containing 5% serum. […] The exact composition of this ‘no-wash’ indicator kit is not disclosed by the manufacturer, but it contains fluo-4-AM and components that reduce background fluorescence. […]

Assay [2] has as its system intracellular cAMP in hBASMCs. The experiment in a line: Intracellular cAMP in hBASMCs by [3H]-adenine labeling. Type of assay: cell-based, human. As to conditions: isoproterenol 10 μM, sustained incubation; [3H]-adenine labeling. The protocol: hBASMCs in 24-well plates (50,000 cells per well) were grown to confluence. The medium was then replaced with serum-free SMGM-2, and after 24 h this was supplemented with [^3H]-adenine (1 μCi per well, 18.4 Ci·mmol^−1). After 2 h at 37 °C in humidified air with 5% CO2, the medium was removed, and the cells were washed twice with HBS. The cells were stimulated at 20 °C in HBS. Incubations were terminated by removal of the medium, addition of ice-cold trichloroacetic acid (5%, 1 mL) and rapid freezing. This protocol ensured that only intracellular [^3H]-cAMP was detected. [^3H]-adenine nucleotides were separated by column chromatography, and the activity was determined by liquid scintillation counting using Ultra-gold scintillant. Results are presented as [^3H]-cAMP activity as a percentage of the sum of the activities of the fractions containing [^3H]-cAMP, [^3H]-ATP, [^3H]-ADP and [^3H]-AMP; henceforth, reported as [^3H]-cAMP (%).

As to `CC(C)NC[C@H](O)c1ccc(O)c(O)c1` [isoproterenol, (−)-isoproterenol hydrochloride], the “effect on the Ca2+ signals evoked by carbachol after pertussis toxin” value in assay [1] was “remained insensitive to isoproterenol”. In assay [2], the “stimulated cAMP concentration after 30 min relative to after 1 min” value came out at 2.8 fold.
